Assays:
[1] = target: T1, Muscarinic acetylcholine receptor M2 (Homo sapiens, UniProt P08172); test: Displacement of [3H]NMS from human muscarinic M2 receptor expressed in CHO cells
T1 sequence (P08172 whole entry): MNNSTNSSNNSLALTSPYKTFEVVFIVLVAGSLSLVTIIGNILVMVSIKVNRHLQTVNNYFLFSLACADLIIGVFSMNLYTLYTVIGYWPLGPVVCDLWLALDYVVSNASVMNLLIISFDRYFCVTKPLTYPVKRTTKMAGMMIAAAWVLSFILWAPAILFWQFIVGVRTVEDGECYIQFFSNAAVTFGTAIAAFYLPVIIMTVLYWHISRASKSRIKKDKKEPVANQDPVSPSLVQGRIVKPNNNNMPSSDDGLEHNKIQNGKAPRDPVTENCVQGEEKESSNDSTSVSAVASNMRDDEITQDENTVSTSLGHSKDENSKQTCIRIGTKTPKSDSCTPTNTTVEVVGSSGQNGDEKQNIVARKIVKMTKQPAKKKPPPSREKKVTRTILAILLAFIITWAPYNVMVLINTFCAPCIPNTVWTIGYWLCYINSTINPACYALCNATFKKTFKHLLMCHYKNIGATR

[2] = target: T2, Muscarinic acetylcholine receptor M4 (Homo sapiens, UniProt P08173); test: Displacement of [3H]NMS from human muscarinic M4 receptor expressed in CHO cells
T2 sequence (P08173 whole entry): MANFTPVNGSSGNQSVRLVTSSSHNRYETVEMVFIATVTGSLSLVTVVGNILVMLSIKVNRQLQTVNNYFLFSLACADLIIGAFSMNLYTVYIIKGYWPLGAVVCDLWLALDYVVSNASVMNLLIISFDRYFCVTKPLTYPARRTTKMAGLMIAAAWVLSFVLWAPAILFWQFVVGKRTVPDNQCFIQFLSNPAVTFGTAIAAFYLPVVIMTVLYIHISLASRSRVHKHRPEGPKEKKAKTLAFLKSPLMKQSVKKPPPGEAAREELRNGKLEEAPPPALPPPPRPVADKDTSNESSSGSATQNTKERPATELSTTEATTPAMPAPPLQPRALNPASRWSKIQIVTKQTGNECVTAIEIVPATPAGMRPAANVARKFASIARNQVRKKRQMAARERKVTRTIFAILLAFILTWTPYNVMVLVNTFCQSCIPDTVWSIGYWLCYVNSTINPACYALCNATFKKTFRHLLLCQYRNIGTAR

[3] = target: T3, Muscarinic acetylcholine receptor M1 (Homo sapiens, UniProt P11229); test: Displacement of [3H]NMS from human muscarinic M1 receptor expressed in CHO cells
T3 sequence (P11229 whole entry): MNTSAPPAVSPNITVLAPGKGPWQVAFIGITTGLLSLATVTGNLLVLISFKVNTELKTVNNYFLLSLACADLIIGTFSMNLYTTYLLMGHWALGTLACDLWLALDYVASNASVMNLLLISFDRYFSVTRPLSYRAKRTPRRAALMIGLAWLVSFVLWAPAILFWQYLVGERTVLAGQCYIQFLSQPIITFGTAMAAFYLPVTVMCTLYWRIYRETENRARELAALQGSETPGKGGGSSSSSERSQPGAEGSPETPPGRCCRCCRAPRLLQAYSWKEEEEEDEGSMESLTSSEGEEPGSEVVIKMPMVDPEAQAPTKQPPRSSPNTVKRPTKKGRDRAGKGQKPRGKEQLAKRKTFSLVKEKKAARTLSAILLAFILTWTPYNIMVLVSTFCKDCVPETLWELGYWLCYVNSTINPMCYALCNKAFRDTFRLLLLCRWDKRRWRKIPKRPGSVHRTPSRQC

[4] = target: Neuronal acetylcholine receptor subunit alpha-7 (Rattus norvegicus, UniProt Q05941); test: Displacement of [125I]-alpha-bungarotoxin from alpha7 nAChR in rat hippocampus membranes; assay type: cell membranes, Membrane
Chain of Neuronal acetylcholine receptor subunit alpha-7 (Rattus norvegicus, UniProt Q05941) (Q05941 whole entry): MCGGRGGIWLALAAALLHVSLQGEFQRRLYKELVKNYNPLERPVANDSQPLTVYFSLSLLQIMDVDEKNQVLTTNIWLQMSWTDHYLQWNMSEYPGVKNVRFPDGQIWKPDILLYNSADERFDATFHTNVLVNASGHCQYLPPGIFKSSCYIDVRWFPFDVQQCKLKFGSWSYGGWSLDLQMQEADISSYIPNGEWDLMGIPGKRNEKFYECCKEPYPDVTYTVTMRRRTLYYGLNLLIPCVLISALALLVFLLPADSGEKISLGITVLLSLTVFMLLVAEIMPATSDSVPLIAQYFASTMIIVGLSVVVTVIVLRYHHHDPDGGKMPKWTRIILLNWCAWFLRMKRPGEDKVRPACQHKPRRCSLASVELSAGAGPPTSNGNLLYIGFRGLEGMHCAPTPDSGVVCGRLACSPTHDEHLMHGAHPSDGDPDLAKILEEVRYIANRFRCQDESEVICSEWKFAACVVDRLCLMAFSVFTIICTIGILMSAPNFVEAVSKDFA

[5] = target: Neuronal acetylcholine receptor; alpha4/beta2 (Rattus norvegicus, UniProt P09483+P12390); test: Displacement of [3H]-epibatidine from alpha4beta2 nAChR in rat cortex hippocampus; assay type: tissue-based
Chain of Neuronal acetylcholine receptor; alpha4/beta2 (Rattus norvegicus, UniProt P09483+P12390) (P09483 whole entry): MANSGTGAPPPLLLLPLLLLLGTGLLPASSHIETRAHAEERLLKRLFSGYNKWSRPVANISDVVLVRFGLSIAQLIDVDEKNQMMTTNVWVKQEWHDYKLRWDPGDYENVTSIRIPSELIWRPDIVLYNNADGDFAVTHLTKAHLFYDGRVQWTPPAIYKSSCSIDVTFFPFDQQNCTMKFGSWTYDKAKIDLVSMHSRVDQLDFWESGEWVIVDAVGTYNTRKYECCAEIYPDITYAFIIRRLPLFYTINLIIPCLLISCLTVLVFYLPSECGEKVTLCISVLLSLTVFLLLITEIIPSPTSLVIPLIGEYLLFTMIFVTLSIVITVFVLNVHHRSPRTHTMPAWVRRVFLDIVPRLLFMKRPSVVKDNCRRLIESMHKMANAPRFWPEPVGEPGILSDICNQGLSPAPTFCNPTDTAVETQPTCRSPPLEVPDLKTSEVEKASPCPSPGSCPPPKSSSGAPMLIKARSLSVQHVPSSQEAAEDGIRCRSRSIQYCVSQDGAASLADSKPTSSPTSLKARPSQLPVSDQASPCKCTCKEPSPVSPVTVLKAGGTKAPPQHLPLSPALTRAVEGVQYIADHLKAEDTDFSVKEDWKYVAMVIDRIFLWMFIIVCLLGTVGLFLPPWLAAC
Chain of Neuronal acetylcholine receptor; alpha4/beta2 (Rattus norvegicus, UniProt P09483+P12390) (P12390 whole entry): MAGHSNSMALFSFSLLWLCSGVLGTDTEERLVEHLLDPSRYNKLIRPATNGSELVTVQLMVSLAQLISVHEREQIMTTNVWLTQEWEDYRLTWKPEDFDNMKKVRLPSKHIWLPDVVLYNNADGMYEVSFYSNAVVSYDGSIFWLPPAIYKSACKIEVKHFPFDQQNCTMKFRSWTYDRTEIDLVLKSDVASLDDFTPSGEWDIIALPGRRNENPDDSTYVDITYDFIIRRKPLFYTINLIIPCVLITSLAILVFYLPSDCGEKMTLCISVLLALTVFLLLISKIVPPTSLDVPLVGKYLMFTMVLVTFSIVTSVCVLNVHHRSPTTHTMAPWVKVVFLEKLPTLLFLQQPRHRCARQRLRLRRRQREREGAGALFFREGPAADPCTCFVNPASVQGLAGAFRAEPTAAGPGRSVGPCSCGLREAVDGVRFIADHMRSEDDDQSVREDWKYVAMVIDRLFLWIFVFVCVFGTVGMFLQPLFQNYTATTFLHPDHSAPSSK

[6] = target: Muscarinic acetylcholine receptor M3 (Homo sapiens, UniProt P20309); test: Displacement of [3H]NMS from human muscarinic M3 receptor expressed in CHO cells
Chain of Muscarinic acetylcholine receptor M3 (P20309 whole entry): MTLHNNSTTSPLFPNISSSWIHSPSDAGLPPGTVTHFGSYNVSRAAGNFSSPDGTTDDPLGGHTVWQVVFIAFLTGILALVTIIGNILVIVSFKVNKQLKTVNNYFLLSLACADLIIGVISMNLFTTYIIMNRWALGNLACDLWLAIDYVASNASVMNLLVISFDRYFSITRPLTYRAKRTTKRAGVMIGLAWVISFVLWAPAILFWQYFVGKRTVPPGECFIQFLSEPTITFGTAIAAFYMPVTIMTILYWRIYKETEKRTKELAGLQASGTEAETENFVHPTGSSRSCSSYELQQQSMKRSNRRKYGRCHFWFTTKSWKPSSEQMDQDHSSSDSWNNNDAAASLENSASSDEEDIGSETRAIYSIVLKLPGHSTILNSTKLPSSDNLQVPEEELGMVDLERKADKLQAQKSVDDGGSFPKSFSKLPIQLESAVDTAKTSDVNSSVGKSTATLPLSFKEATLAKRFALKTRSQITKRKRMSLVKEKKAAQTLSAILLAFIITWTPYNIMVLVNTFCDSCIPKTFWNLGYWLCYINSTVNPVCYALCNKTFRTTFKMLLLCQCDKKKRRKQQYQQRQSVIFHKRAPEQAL

[7] = target: T4, Muscarinic acetylcholine receptor M5 (Homo sapiens, UniProt P08912); test: Displacement of [3H]NMS from human muscarinic M5 receptor expressed in CHO cells
T4 sequence (P08912 whole entry): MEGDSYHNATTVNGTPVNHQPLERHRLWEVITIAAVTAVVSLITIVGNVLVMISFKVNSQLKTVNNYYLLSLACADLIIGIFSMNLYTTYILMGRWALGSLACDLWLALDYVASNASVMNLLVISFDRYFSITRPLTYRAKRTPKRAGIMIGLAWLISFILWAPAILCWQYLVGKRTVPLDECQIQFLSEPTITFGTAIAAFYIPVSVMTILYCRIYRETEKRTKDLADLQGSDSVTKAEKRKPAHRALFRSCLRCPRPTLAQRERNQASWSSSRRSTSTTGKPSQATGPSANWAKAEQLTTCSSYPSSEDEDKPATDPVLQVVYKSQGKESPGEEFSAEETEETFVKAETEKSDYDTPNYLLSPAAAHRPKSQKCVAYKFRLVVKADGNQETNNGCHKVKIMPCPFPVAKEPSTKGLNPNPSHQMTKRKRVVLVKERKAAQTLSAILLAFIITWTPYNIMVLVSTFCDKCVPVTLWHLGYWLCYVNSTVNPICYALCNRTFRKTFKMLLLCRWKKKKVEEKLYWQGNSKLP

[8] = target: Neuronal acetylcholine receptor subunit alpha-7 (Homo sapiens, UniProt P36544); test: Binding affinity to alpha7 nAChR (unknown origin)
Chain of Neuronal acetylcholine receptor subunit alpha-7 (Homo sapiens, UniProt P36544) (P36544 whole entry): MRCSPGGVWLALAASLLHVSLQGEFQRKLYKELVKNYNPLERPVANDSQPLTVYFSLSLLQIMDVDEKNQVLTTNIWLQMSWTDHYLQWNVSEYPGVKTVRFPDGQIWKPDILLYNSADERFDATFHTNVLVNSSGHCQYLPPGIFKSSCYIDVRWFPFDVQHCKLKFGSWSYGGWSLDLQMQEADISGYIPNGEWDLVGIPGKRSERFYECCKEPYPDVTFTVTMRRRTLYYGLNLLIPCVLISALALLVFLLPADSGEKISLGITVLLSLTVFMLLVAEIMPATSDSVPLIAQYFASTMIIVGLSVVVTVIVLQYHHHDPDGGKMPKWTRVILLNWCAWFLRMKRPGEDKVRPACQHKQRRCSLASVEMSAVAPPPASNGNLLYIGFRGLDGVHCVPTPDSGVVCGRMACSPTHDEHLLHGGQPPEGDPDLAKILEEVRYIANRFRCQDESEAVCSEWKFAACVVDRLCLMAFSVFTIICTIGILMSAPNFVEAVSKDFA

[9] = target: Neuronal acetylcholine receptor; alpha4/beta2 (Homo sapiens, UniProt P17787+P43681); test: Binding affinity to alpha4beta2 nAChR (unknown origin); assay type: protein-complex assay
Chain of Neuronal acetylcholine receptor; alpha4/beta2 (Homo sapiens, UniProt P17787+P43681) (P17787 whole entry): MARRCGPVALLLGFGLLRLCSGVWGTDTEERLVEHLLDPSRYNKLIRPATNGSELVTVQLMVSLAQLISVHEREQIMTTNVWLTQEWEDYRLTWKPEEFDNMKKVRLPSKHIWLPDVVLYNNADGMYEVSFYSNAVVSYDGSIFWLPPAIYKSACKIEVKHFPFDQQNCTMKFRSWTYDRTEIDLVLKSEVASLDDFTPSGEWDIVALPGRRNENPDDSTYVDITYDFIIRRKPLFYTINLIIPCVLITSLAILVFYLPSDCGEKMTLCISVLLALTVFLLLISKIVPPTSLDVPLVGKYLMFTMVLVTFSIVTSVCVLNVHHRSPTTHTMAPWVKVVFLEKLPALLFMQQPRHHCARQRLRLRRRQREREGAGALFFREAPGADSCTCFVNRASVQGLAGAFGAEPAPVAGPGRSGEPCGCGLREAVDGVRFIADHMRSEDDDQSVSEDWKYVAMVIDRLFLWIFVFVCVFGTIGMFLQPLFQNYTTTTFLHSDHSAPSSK
Chain of Neuronal acetylcholine receptor; alpha4/beta2 (Homo sapiens, UniProt P17787+P43681) (P43681 whole entry): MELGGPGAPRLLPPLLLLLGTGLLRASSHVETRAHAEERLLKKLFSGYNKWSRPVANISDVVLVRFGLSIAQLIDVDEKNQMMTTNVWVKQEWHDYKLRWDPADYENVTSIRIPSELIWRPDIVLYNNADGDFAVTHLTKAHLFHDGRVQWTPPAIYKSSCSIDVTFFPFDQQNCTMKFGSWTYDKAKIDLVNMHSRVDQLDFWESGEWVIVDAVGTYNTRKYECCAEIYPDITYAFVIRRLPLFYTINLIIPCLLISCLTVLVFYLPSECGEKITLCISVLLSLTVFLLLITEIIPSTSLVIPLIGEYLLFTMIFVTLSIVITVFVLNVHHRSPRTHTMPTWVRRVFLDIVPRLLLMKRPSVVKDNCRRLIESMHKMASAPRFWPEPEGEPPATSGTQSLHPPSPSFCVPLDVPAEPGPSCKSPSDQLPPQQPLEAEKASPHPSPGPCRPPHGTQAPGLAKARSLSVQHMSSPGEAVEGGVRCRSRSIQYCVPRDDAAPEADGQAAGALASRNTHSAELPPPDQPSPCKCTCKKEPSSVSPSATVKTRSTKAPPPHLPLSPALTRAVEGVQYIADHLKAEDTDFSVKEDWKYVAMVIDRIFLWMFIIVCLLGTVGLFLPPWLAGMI

[10] = target: Muscarinic acetylcholine receptor; test: Binding affinity to muscarinic M1/M5 receptor (unknown origin); assay type: protein assay, Homo sapiens

| Compound | Ki [1] [µM] | Ki [2] [µM] | Ki [3] [µM] | Ki [4] [µM] | Ki [5] [µM] | Ki [6] [µM] | Ki [7] [µM] | Ki [8] [µM] | Ki [9] [µM] | Ki [10] [µM] |
| --- | --- | --- | --- | --- | --- | --- | --- | --- | --- | --- |
| CN1CCC[C@H]1[C@@H]1COC(=O)N1 | > 100 | > 100 | > 100 | 64 | 9 | > 100 | > 100 |  |  |  |
| CN1CCC[C@H]1[C@H]1CNC(=O)O1 | > 100 | > 100 | > 100 |  |  | > 100 | > 100 |  |  |  |
| C[N+](C)(C)CCOC(N)=O [CARBAMOYLCHOLINE] |  |  |  |  |  |  |  | 66 |  |  |
| CN(C)C[C@H]1CN(C)C(=O)O1 | > 100 | > 100 | > 100 | 158 | 2.2 | > 100 | > 100 |  |  |  |
| CNC(=O)OCC[N+](C)(C)C |  |  |  |  |  |  |  | 44 | 0.023 | 0.15 |
| CN(C)C[C@@H]1CNC(=O)O1 | > 100 | > 100 | > 100 | 94 | 0.452 | > 100 | > 100 |  |  |  |
| CN1CCC[C@H]1[C@H]1COC(=O)N1 | > 100 | > 100 | > 100 | 50 | 14 | > 100 | > 100 |  |  |  |
| CN1C[C@@H](C[N+](C)(C)C)OC1=O | > 100 | > 100 | > 100 | 30 | 3.61 | > 100 | > 100 |  |  |  |
| C[N+](C)(C)C[C@@H]1CNC(=O)O1 | > 100 | > 100 | > 100 | 45 | 0.429 | > 100 | > 100 |  |  |  |
| CN1CCC[C@H]1[C@@H]1CNC(=O)O1 | > 100 | > 100 | > 100 |  |  | > 100 | > 100 |  |  |  |
| CN(C)CCOC(=O)N(C)C [2-(DIMETHYLAMINO)ETHYL DIMETHYLCARBAMATE] |  |  |  |  |  |  |  |  | 5.7 | 18 |
| C[N+]1(C)CCC[C@H]1COC(N)=O | > 100 | > 100 | > 100 | 1.8 | 1.06 | > 100 | > 100 |  |  |  |
| CN(C)C[C@@H]1CN(C)C(=O)O1 | > 100 | > 100 | > 100 | 449 | 2.66 | > 100 | > 100 |  |  |  |
| CN(C)C[C@H]1CNC(=O)O1 | > 100 | > 100 | > 100 | 41 | 0.45 | > 100 | > 100 |  |  |  |
| CN1CCC[C@H]1COC(N)=O | > 100 | > 100 | > 100 | 78 | 0.693 | > 100 | > 100 |  |  |  |
| CN(C)C(=O)OCC[N+](C)(C)C |  |  |  |  |  |  |  |  | 0.02 | 1.2 |
| CC(C[N+](C)(C)C)OC(N)=O (stereo not drawn) [BETHANECHOL] |  |  |  |  |  |  |  |  |  | 0.097 |
| CN1C[C@H](C[N+](C)(C)C)OC1=O | > 100 | > 100 | > 100 | 18.6 | 3.1 | > 100 | > 100 |  |  |  |
| C[N+](C)(C)C[C@H]1CNC(=O)O1 | > 100 | > 100 | > 100 | 47 | 0.396 | > 100 | > 100 |  |  |  |
